Patent US20100279997A1, “ANALGESIC THAT BINDS FILAMIN A” (priority 2009, published 2010)
Like-named read-outs stand apart in the source and are kept apart here.

Assays:
μ opiate receptor (MOR) = target: T1, μ opiate receptor (MOR) (Rattus norvegicus, UniProt P33535); assay: MOR agonist activity, [35S]GTPγS binding assay using striatal membranes; assay type: biochemical; conditions: for [35S]GTPγS binding to Gαo, FLNA-binding compound as agonist 0.1 μM: 0.1 μM compound; for [35S]GTPγS binding to Gαo, FLNA-binding compound as agonist 0.1 μM / [35S]GTPγS binding to Gαo, FLNA-binding compound as agonist 1 μM: striatal membranes; for [35S]GTPγS binding to Gαo, FLNA-binding compound as agonist 1 μM + BFNA: 1 μM compound + 1 μM β-funaltrexamine; for [35S]GTPγS binding to Gαo, FLNA-binding compound as agonist 1 μM: 1 μM compound; for % DAMGO + BFNA: relative to DAMGO + BFNA; for % DAMGO (0.1 μM) / % DAMGO (1 μM): relative to DAMGO
T1 construct: from tissue; host or cells: striatal tissue (membrane preparation)
T1 sequence (P33535 whole entry): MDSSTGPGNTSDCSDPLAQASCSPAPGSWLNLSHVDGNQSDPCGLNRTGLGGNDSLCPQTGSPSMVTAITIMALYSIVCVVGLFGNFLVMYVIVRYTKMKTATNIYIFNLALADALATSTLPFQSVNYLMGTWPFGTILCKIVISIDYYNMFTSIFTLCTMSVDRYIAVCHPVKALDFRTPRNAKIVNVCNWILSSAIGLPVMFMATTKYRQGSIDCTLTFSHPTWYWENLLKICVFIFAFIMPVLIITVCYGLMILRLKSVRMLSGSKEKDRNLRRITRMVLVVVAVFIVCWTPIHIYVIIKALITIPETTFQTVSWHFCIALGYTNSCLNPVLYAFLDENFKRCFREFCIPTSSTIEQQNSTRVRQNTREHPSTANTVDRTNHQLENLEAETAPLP
Experimental: To assess the μ opiate receptor (MOR) agonist activity of positive compounds from the FLNA screening, compounds were tested in a [^35S]GTPγS binding assay using striatal membranes.
Striatal tissue was homogenized in 10 volumes of ice cold 25 mM HEPES buffer, pH 7.4, which contained 1 mM EGTA, 100 mM sucrose, 50 μg/ml leupeptin, 0.04 mM PMSF, 2 μg/ml soybean trypsin inhibitor and 0.2% 2-mercaptoethanol. The homogenates were centrifuged at 800×g for 5 minutes and the supernatants were centrifuged at 49,000×g for 20 minutes. The resulting pellets were suspended in 10 volume of reaction buffer, which contained 25 mM HEPES, pH 7.5, 100 mM NaCl, 50 μg/ml leupeptin, 2 μg/ml soybean trypsin inhibitor, 0.04 mM PMSF and 0.02% […].
The resultant striatal membrane preparation (200 μg) was admixed and maintained (incubated) at 30° C. for 5 minutes in reaction buffer as above that additionally contained 1 mM MgCl2 and 0.5 nM [^35S]GTPγS (0.1 μCi/assay, PerkinElmer Life and Analytical Sciences) in a total volume of 250 μl and continued for 5 minutes in the absence or presence of 0.1-10 μM of an assayed compound of interest. The reaction was terminated by dilution with 750 μl of ice-cold reaction buffer that contained 20 mM MgCl2 and 1 mM EGTA and immediate centrifugation at 16,000×g for 5 minutes.
The resulting pellet was solubilized by sonicating for 10 seconds in 0.5 ml of immunoprecipitation buffer containing 0.5% digitonin, 0.2% sodium cholate and 0.5% NP-40. Normal rabbit serum (1 μl) was added to 1 ml of lysate and incubated at 25° C. for 30 minutes. Nonspecific immune complexes were removed by incubation with 25 μl of protein A/G-conjugated agarose beads at 25° C. for 30 minutes followed by centrifugation at 5,000×g at 4° C. for 5 minutes. The supernatant was divided and separately incubated at 25° C. for 30 minutes with antibodies raised against Gao proteins (1:1,000 dilutions).
The immunocomplexes so formed were collected by incubation at 25° C. for 30 minutes with 40 μl of agarose-conjugated protein A/G beads and centrifugation at 5,000×g at 4° C. for 5 minutes. The pellet was washed and suspended in buffer containing 50 mM Tris-HCl, pH 8.0, and 1% NP-40. The radioactivity in the suspension was determined by liquid scintillation spectrometry. […] DAMGO (H-Tyr-D-Ala-Gly-N-MePhe-Gly-OH; 1 or 10 μM) was used as a positive control.

[1] = target: Bn-VAKGL pentapeptide of filamin A (FLNA) (Homo sapiens, UniProt P21333); assay: FITC-NLX-based FLNA screening assay (FLNA peptide binding assay)
Experimental: The final assay volume is 100 μl.
Compounds are tested in triplicate or quadruplicate.

[2] = read-out: Percent inhibition of FITC-NLX binding, 0.1 μM, 0.1 μM compound, 10 nM FITC-NLX
[3] = read-out: Percent inhibition of FITC-NLX binding, 0.01 μM
[4] = read-out: Percent inhibition of FITC-NLX binding, 0.1 μM
[5] = read-out: Percent inhibition of FITC-NLX binding, 1 μM
[6] = read-out: Percent inhibition of FITC-NLX binding, 0.01 μM, 0.01 μM compound, 10 nM FITC-NLX
[7] = read-out: Percent inhibition of FITC-NLX binding, 1 μM, 1 μM compound, 10 nM FITC-NLX

Row | Compound | [35S]GTPγS binding to Gαo, FLNA-binding compound as agonist 0.1 μM (μ opiate receptor (MOR)) | [35S]GTPγS binding to Gαo, FLNA-binding compound as agonist 1 μM + BFNA (μ opiate receptor (MOR)) | [35S]GTPγS binding to Gαo, FLNA-binding compound as agonist 1 μM (μ opiate receptor (MOR)) | inhibition at 0.1 µM [1, 2] | % DAMGO + BFNA (μ opiate receptor (MOR)) | % DAMGO (0.1 μM) (μ opiate receptor (MOR)) | % DAMGO (1 μM) (μ opiate receptor (MOR)) | inhibition at 0.01 µM [1, 3] | inhibition at 0.1 µM [1, 4] | inhibition at 1 µM [1, 5] | inhibition at 0.01 µM [1, 6] | inhibition at 1 µM [1, 7]
1 | CC1CN(CC(O)COc2ccccc2C(C)C)CC(C)O1 (stereo not shown) [Compound A0029] | 173.8% | 22.3% | 206.5% | 44.4% |  |  |  |  |  |  |  | 
2 | CC1CN(CC(O)COc2ccc(Br)c(Cl)c2)CC(C)O1 (stereo not shown) [Compound A0045] | 143.9% | 99.2% | 274.2% |  |  |  |  |  |  |  |  | 
3 | CC1CN(CC(O)COc2cc(F)cc(F)c2)CC(C)O1 (stereo not shown) [Compound A0046] | 257.5% | 140.0% | 354.1% |  | 189.4% | 131.2% | 128.3% |  |  |  |  | 
4 | CC1CN(CC(O)COc2ccc(Cl)cc2)CC(C)O1 (stereo not shown) [Compound A0047] | 233.0% | 116.5% | 255.0% |  |  |  |  |  |  |  |  | 
5 | COc1ccc(OCC(O)CN2CC(C)OC(C)C2)cc1 (stereo not shown) [Compound A0048] | 233.7% | 167.2% | 302.9% |  |  |  |  |  |  |  |  | 
6 | CN(C)c1cccc(OCC(O)CN2CCc3ccccc3C2)c1 (stereo not shown) [Compound A0050] | 151.0% | 81.0% | 189.3% |  |  |  |  |  |  |  |  | 
7 | CC1CN(CC(O)COc2cccc(C(F)(F)F)c2)CC(C)O1 (stereo not shown) [Compound A0051] | 290.4% | 211.6% | 386.6% |  |  |  |  |  |  |  |  | 
8 | COc1ccc(OCC(O)CN2CCc3ccccc3C2)cc1 (stereo not shown) [Compound A0053] | 78.5% | 15.1% | 118.2% |  |  |  |  |  |  |  |  | 
9 | OC(COc1cccc(C(F)(F)F)c1)CN1CCc2ccccc2C1 (stereo not shown) [Compound A0054] | 74.9% | 114.1% | 159.2% |  |  |  |  |  |  |  |  | 
10 | OC(COc1cccc(F)c1)CN1CCc2ccccc2C1 (stereo not shown) [Compound A0055] | 89.8% | 33.5% | 195.2% |  |  |  |  |  |  |  |  | 
11 | CC1CCC(C(C)C)C(OCC(O)CN2CCC(=O)C(C)C2)C1 (stereo not shown) [Compound A0056] | 115.6% | 17.4% | 129.6% |  |  |  |  |  |  |  |  | 
12 | OC(CN1CCc2ccccc2C1)OCc1ccc(Br)c(F)c1 (stereo not shown) [Compound A0057] | 124.2% | 44.8% | 192.1% |  | 112.3% | 79.6% | 83.3% | 29.1% | 37% | 43.4% |  | 
13 | OC(COc1ccc(Br)c(F)c1)CN1CCCCC1 (stereo not shown) [Compound A0058] | 70.7% | 59.9% | 244.3% |  |  |  |  |  |  |  |  | 
14 | OC(COc1ccc(Br)c(F)c1)CN1CCSCC1 (stereo not shown) [Compound A0059] | 99.2% | 85.7% | 129.9% |  |  |  |  |  |  |  |  | 
15 | CC1CCC(C(C)C)C(OCC(O)CN2CCC(=O)CC2)C1 (stereo not shown) [Compound A0060] | 99.7% | 14.3% | 158.2% |  |  |  |  |  |  |  |  | 
16 | COc1c2c(cc3c1OCO3)CCN(CC(O)COC1CC(C)CCC1C(C)C)C2 (stereo not shown) [Compound A0061] | 110.3% | 10.7% | 197.1% |  |  |  |  |  |  |  |  | 
17 | OC(COc1ccc(Br)c(F)c1)CN1CCN(CCN2CCOCC2)CC1 (stereo not shown) [Compound A0063] | 122.8% | 310% | 245.8% |  | 77.7% | 78.7% | 106.6% | 21.2% | 31% | 38.8% |  | 
18 | CC1CCC(C(C)C)C(OCC(O)CN2CCOc3ccccc32)C1 (stereo not shown) [Compound A0066] | 151.9% | 59.2% | 195.6% | 45.4% | 171.6% | 88.3% | 89.0% |  |  |  | 36.7% | 53.7%
19 | COc1ccc(OCC(O)CN2CCCc3ccccc32)cc1 (stereo not shown) [Compound A0067] | 170.8% | 33.9% | 254.4% | 39.1% | 98.3% | 99.2% | 115.8% |  |  |  | 32.7% | 44.3%
20 | CC1CCC(C(C)C)C(OCC(O)CN2CCCc3ccccc32)C1 (stereo not shown) [Compound A0068] | 73.9% | 98.1% | 110.4% |  |  |  |  |  |  |  |  | 
21 | COc1ccc(OCC(O)CN2CCc3ccccc32)cc1 (stereo not shown) [Compound A0069] |  |  |  |  |  |  |  | 32% | 40.4% | 46.1% |  | 
22 | COc1ccc(OCC(O)CN2CCc3cc4c(c(OC)c3C2)OCO4)cc1 (stereo not shown) [Compound A0070] | 128.6% | 80.3% | 195.3% | 39.1% | 232.8% | 74.7% | 88.9% |  |  |  | 32.9% | 41.7%
23 | COc1ccc(OCC(O)CN2CCOc3ccccc32)cc1 (stereo not shown) [Compound A0076] | 79.8% | 41.2% | 172.6% |  | 119.4% | 46.4% | 78.6% |  |  |  |  | 
24 | COc1ccc(OCC(O)Cn2ccc3ccccc32)cc1 (stereo not shown) [Compound A0077] | 300.1% | 103.5% | 334.7% |  | 470.5% | 170.5% | 132.3% |  |  |  |  | 
25 | CC1CCC(C(C)C)C(OCC(O)Cn2ccc3ccccc32)C1 (stereo not shown) [Compound A0078] | 250.5% | 147.8% | 289.9% |  |  |  |  |  |  |  |  | 
